From patent US10654845B2, “2-(het)aryl-substituted fused bicyclic heterocycle derivatives as pesticides” (BAYER CROPSCIENCE AKTIENGESELLSCHAFT, priority 2015, dated 2020)

Legend:
[1] = tested on: Musca domestica; assay: Musca domestica test; type: in vivo; conditions: 100 ppm, after 2 days, adult houseflies
Protocol: (§1) Solvent: dimethyl sulphoxide
(§2) To produce a suitable preparation of active compound, 10 mg of active compound are mixed with 0.5 ml of dimethyl sulphoxide, and the concentrate is diluted with water to the desired concentration.
Vessels containing a sponge treated with sugar solution and the active compound preparation of the desired concentration are populated with 10 adult houseflies (Musca domestica).
After 2 days, the kill in % is determined. 100% means that all of the flies have been killed; 0% means that none of the flies have been killed.

[2] = log P by HPLC on reversed-phase column (C18), EEC Directive 79/831 Annex V.A8
Excerpt: Called log P (HCOOH) in the table.
Called log P (neutral) in the table.

[3] = tested on: Ctenocephalides felis; assay: Ctenocephalides felis oral test; type: in vivo; conditions: 100 ppm, after 2 days
Protocol: Ctenocephalides felis-Oral Test
as §1
To produce a suitable preparation of active compound, 10 mg of active compound are mixed with 0.5 ml of dimethyl sulphoxide. Dilution with citrated cattle blood gives the desired concentration.
About 20 unfed adult cat fleas (Ctenocephalides felis) are placed into a chamber which is closed at the top and bottom with gauze. A metal cylinder whose bottom end is closed with parafilm is placed onto the chamber. The cylinder contains the blood/active compound preparation, which can be imbibed by the fleas through the parafilm membrane.
After 2 days, the kill in % is determined. 100% means that all of the fleas have been killed; 0% means that none of the fleas have been killed.

[4] = tested on: Phaedon cochleariae; assay: Phaedon cochleariae spray test; type: in vivo; conditions: after 7 days, beetle larvae killed; for pest or weed control at 500 g/ha: Phaedon cochleariae, 168 h, read-out: efficacy in %
Protocol: Phaedon cochleariae-Spray Test
(§3) Solvent: 78.0 parts by weight of acetone
(§4) • 1.5 parts by weight of dimethylformamide Emulsifier: alkylaryl polyglycol ether
(§5) To produce a suitable preparation of active compound, 1 part by weight of active compound is dissolved using the stated parts by weight of solvent and made up with water containing an emulsifier concentration of 1000 ppm until the desired concentration is attained. To produce further test concentrations, the preparation is diluted with emulsifier-containing water.
After 7 days, the efficacy in % is determined. 100% means that all the beetle larvae have been killed; 0% means that no beetle larvae have been killed.

[5] = tested on: Myzus persicae; assay: Myzus persicae spray test (Chinese cabbage leaf discs); type: in vivo; conditions: after 6 days, aphids killed; for efficacy in % / pest or weed control at 500 g/ha: 500 g/ha
Protocol: Myzus persicae Spray Test
Solvent: 78 parts by weight of acetone
as §4, §5
Discs of Chinese cabbage leaves (Brassica pekinensis) infested by all stages of the green peach aphid (Myzus persicae) are sprayed with an active compound preparation of the desired concentration.
After 6 days, the efficacy in % is determined. 100% means that all the aphids have been killed; 0% means that no aphids have been killed.

[6] = tested on: Lucilia cuprina; assay: Lucilia cuprina test; type: in vivo; conditions: 100 ppm, after 2 days, L1 larvae
Protocol: as §1, §2
About 20 L1 larvae of the Australian sheep blowfly (Lucilia cuprina) are transferred into a test vessel containing minced horsemeat and the active compound preparation of the desired concentration.
After 2 days, the kill in % is determined. 100% means that all the larvae have been killed; 0% means that no larvae have been killed.

[7] = tested on: Spodoptera frugiperda; assay: Spodoptera frugiperda spray test; type: in vivo; conditions: 500 g/ha, after 7 days, caterpillars killed
Protocol: Spodoptera frugiperda-Spray Test Solvent: 78.0 parts by weight of acetone • • 1.5 parts by weight of dimethylformamide Emulsifier: alkylaryl polyglycol ether […] To produce further test concentrations, the preparation is diluted with emulsifier-containing water. Leaf disks of maize (Zea mays) are sprayed with an active compound preparation of the desired concentration and, after drying, populated with caterpillars of the armyworm (Spodoptera frugiperda).

[8] = tested on: Meloidogyne incognita; assay: Meloidogyne incognita test; type: in vivo; conditions: 20 ppm, after 14 days, formation of galls
Protocol: Meloidogyne incognita-Test
Solvent: 125.0 parts by weight of acetone
To produce a suitable preparation of active compound, 1 part by weight of active compound is mixed with the stated amount of solvent and the concentrate is diluted with water to the desired concentration.
Vessels are filled with sand, active compound solution, an egg/larvae suspension of the southern root-knot nematode (Meloidogyne incognita) and lettuce seeds. The lettuce seeds germinate and the plants develop. The galls develop on the roots.
After 14 days, the nematicidal efficacy in % is determined by the formation of galls. 100% means that no galls were found; 0% means that the number of galls on the treated plants corresponds to the untreated control.

[9] = tested on: Tetranychus urticae; assay: Tetranychus urticae spray test, OP-resistant; type: in vivo; conditions: after 6 days, spider mites killed
Protocol: Tetranychus urticae-Spray Test, OP-Resistant
as §3, §4, §5
Discs of bean leaves (Phaseolus vulgaris) infested with all stages of the greenhouse red spider mite (Tetranychus urticae) are sprayed with an active compound preparation of the desired concentration.
After 6 days, the efficacy in % is determined. 100% means that all the spider mites have been killed; 0% means that no spider mites have been killed.

[10] = reversed-phase HPLC column (C18), pH 2.7, logP-acidic, LC-MS acidic range, pH 2.7 (HCOOH), C18, 55° C.
[11] = reversed-phase HPLC column (C18), pH 7.8, log P (neutral), preparation examples, neutral range, pH 7.8
[12] = reversed-phase HPLC column (C18), pH 7.8, logP-neutral, LC-MS neutral range, pH 7.8, C18, 55° C.
[13] = Myzus persicae, foliar, 144 h, read-out: efficacy in %
[14] = LC-MS acidic range, pH 2.7 (HCOOH), C18, 55° C.
[15] = LC-MS neutral range, pH 7.8, C18, 55° C.

Row | Structure (SMILES) | logP-acidic ([2]; pH 2.7) | logP-neutral ([2]; pH 7.8) | efficacy in % ([4]; 500 g/ha) | efficacy in % [5] | efficacy in % ([9]; 500 g/ha) | also measured
1 | CCS(=O)(=O)c1ccc(NC(=O)C(F)(F)C(F)F)nc1-c1nc2cc(C(F)(F)F)ncc2n1C [Example 8] | 2.80 | 2.12 | 100% | 90% |  | kill in % [1]: 100%; kill in % [3]: 100%; kill in % [6]: 100%
2 | CCOc1ccc(S(=O)(=O)CC)c(-c2nc3cc(C(F)(F)F)ncc3n2C)n1 [Example 10, 2-[6-Ethoxy-3-(ethylsulphonyl)pyridin-2-yl]-3-methyl-6-(trifluoromethyl)-3H-imidazo[4,5-c]pyridine] |  |  |  |  |  | kill in % [1]: 90%; chromatographic logP [2, 10]: 2.94; chromatographic logP [2, 11]: 2.86; chromatographic logP [2, 12]: 2.86; pest or weed control at 500 g/ha ([4]; 500 g/ha): 100%; efficacy in % [7]: 83%; pest or weed control at 500 g/ha [5, 13]: 90%; kill in % [6]: 100%
3 | CCS(=O)(=O)c1ccc(OC(C)C)nc1-c1nc2cc(C(F)(F)F)ncc2n1C [Example 18] | 3.31 | 3.22 |  |  |  | nematicidal efficacy in % [8]: 90%
4 | CCS(=O)(=O)c1ccc(NC(=O)COC)nc1-c1nc2cc(C(F)(F)F)ncc2n1C [Example 21] | 2.22 | 2.17 | 100% | 90% |  | efficacy in % [7]: 100%
5 | CCS(=O)(=O)c1ccc(NC(=O)C(F)F)nc1-c1nc2cc(C(F)(F)F)ncc2n1C [Example 24] | 2.34 | 2.22 | 100% | 100% | 90% | 
6 | CCS(=O)(=O)c1ccc(SC(C)C)nc1-c1nc2cc(C(F)(F)F)ncc2n1C [Example 29] |  |  |  |  |  | logP-acidic [2, 14]: 3.62; logP-neutral [2, 15]: 3.53; nematicidal efficacy in % [8]: 90%
7 | CCS(=O)(=O)c1ccc(C(=O)NC)nc1-c1nc2cc(C(F)(F)F)ncc2n1C [Example 31, 5-(Ethylsulphonyl)-N-methyl-6-[3-methyl-6-(trifluoromethyl)-3H-imidazo[4,5-c]pyridin-2-yl]pyridine-2-carboxamide] |  |  |  |  | 100% | chromatographic logP [2, 10]: 2.01; chromatographic logP [2, 11]: 1.96; chromatographic logP [2, 12]: 1.96; pest or weed control at 500 g/ha ([4]; 500 g/ha): 100%; pest or weed control at 500 g/ha [5, 13]: 100%
8 | CCS(=O)(=O)c1ccc(C(=O)NC2CC2)nc1-c1nc2cc(C(F)(F)F)ncc2n1C [Example 33] | 2.34 | 2.27 |  |  | 90% | efficacy in % ([4]; 100 g/ha): 83%
9 | CCS(=O)(=O)c1ccc(C(=S)NC)nc1-c1nc2cc(C(F)(F)F)ncc2n1C [Example 34, 5-(Ethylsulphonyl)-N-methyl-6-[3-methyl-6-(trifluoromethyl)-3H-imidazo[4,5-c]pyridin-2-yl]pyridine-2-carbothioamide] |  |  |  |  | 100% | chromatographic logP [2, 10]: 2.8; chromatographic logP [2, 11]: 2.76; chromatographic logP [2, 12]: 2.76; pest or weed control at 500 g/ha [5, 13]: 90%
10 | CCNc1ccc(S(=O)(=O)CC)c(-c2nc3cc(C(F)(F)F)ncc3n2C)n1 [Example 56] |  |  | 100% | 100% | 90% | logP-acidic [2, 14]: 2.37; logP-neutral [2, 15]: 2.35; nematicidal efficacy in % [8]: 100%
11 | CCS(=O)(=O)c1ccc(NS(=O)(=O)C(F)(F)F)nc1-c1nc2cc(C(F)(F)F)ncc2n1C [Example 58] | 2.37 | 1.20 |  |  | 90% | 
12 | CCS(=O)(=O)c1ccc(N(C)NC)nc1-c1nc2cc(C(F)(F)F)ncc2n1C [Example 60, 1-[5-Ethylsulphonyl-6-[3-methyl-6-(trifluoromethyl)imidazo[4,5-c]pyridin-2-yl]-2-pyridyl]-1,2-dimethylhydrazine] |  |  |  |  |  | efficacy in % ([9]; 100 g/ha): 90%; chromatographic logP ([2]; pH 2.7): 2.37; chromatographic logP ([2]; pH 7.8): 2.39; pest or weed control at 500 g/ha ([4]; 500 g/ha): 100%; pest or weed control at 100 g/ha ([5]; Myzus persicae, foliar, 144 h, 100 g/ha, read-out: efficacy in %): 90%
13 | CCS(=O)(=O)c1ccc(NC(C)=O)nc1-c1nc2cc(C(F)(F)C(F)(F)F)ncc2n1C [Example 62] | 2.54 | 2.47 | 100% |  | 90% | efficacy in % [7]: 100%; nematicidal efficacy in % [8]: 90%
14 | CCS(=O)(=O)c1ccc(N(C)C)nc1-c1nc2cc(C(F)(F)F)ncc2n1C [Example 64] |  |  | 100% | 90% |  | logP-acidic [2, 14]: 2.55; logP-neutral [2, 15]: 2.49; efficacy in % [7]: 100%
15 | CCS(=O)(=O)c1ccc(NC(=O)C(C)CSC)nc1-c1nc2cc(C(F)(F)F)ncc2n1C (centres unmarked) [Example 65] | 2.94 | 2.78 | 100% | 100% |  | nematicidal efficacy in % [8]: 100%
16 | CCS(=O)(=O)c1ccc(N)nc1-c1nc2cc(C(F)(F)C(F)(F)F)ncc2n1C [Example 67] | 2.14 | 2.14 | 100% | 90% | 100% | efficacy in % [7]: 100%
17 | CCS(=O)(=O)c1ccc(N(C)N)nc1-c1nc2cc(C(F)(F)F)ncc2n1C [Example 74] |  |  | 100% | 90% | 90% | logP-acidic [2, 14]: 1.96
